Experiments:
[1] = tested on: developing type II collagen arthritis; test: Rat collagen arthritis model, treatment alone or in combination with etanercept (Example 5); type: in vivo; details: for % decrease in ankle diameter verses disease control, drug alone: day 17
Description: (§1) Rat collagen induced arthritis is an experimental model of polyarthritis that has been widely used for preclinical testing of numerous anti-arthritic agents. Rat type II collagen arthritis results when rats are immunized against homologous or heterologous type II collagen. […] As used herein “significant” means that p≦0.05. Unless specified as “normal control” or “disease control” reference to “animal” means a rat with developing type II collagen arthritis.
Bovine Type II collagen (Sigma) was diluted with 0.1N acetic acid to a concentration of 4 mg/ml. and emulsified with an equal volume of Freund's incomplete adjuvant (Sigma). Female Lewis rats (Charles River) were randomized by weigh into 10 study groups Table 3 identifies the groups that were used for evaluation of efficacy and Table 4 identifies the groups used for evaluation of toxicity.
Animals were anesthetized and immunized at the base of the tail and two sites on the back on day 0 and day 6. Animals were weighed on days 0, 3, 9-24. […] Treatment was administered either alone or in combination with etanercept, (1 mg/kg) dosed subcutaneously on days 9, 12 and 15. […] The remaining 4 animals were sacrificed for necropsy on day 16.

[2] = tested on: developing type II collagen arthritis; test: Rat collagen arthritis model, dose responsive efficacy, IV or SC 2x/week (Example 4); type: in vivo; details: IV 2x/week, read-out: average ED50 value for efficacy (AUC+Final Paw Weight)
Description: as §1
(§2) Bovine Type II collagen (Sigma) was diluted with 0.1N acetic acid to a concentration of 4 mg/ml. and emulsified with an equal volume of Freund's incomplete adjuvant (Sigma).
(§3) The rats were anesthetized and given collagen injections spread over 3 subcutaneous sites on back on day 0 and day 6. […] Rats were weighed on days 0, 3, 6, and 9-18 of the study, and caliper measurements of ankles were taken every day beginning on day 9 (or day 0 of arthritis). After final body weight measurement on day 18, animals were euthanized, blood was drawn for serum (for clinical chemistries) and CBC analysis and tissues were collected. No clinical chemistry or CBC analysis was done for groups 5s and 12s, however these groups were sampled for drug levels for pharmacokinetic analysis.

[3] = Observation on high dose MTX dosing preparation; type: physicochemical; details: 0.75 mg/kg dose preparation
[4] = Lewis, rat, in vivo, 18 day
Description: as §3
Complete Blood Counts (CBC) and Clinical Chemistries were evaluated for each group.

[5] = tested on: developing type II collagen arthritis; test: Rat collagen arthritis model, prophylactic IV treatment 3x/week, day 0-16 (Example 3); type: in vivo
Description: as §1, §2
The rats were anesthetized and given collagen injections spread over 3 subcutaneous sites on back on day 0 and day 6.

[6] = batches 70 mg/kg, methotrexate 0.2 mg/kg, FIG. 5

Row | Molecule | % decrease in ankle diameter verses disease control, drug alone ([1]; 0.25 mg/kg PO 2x/week) [%] | decreases in ankle diameter from disease control, alone or in combination with etanercept ([1]; ATI-101 5, 20 and 65 mg/kg, MTX 0.25 mg/kg) | ED50 [2] [mg/kg] | behaviour of high dose preparation in solution [3] | therapeutic index, considering bone marrow suppression at 0.5 mg/kg ([4]; 0.5 mg/kg) | dose value for life threatening toxicity (bone marrow suppression) ([4]; iv) [mg/kg] | inhibition of ankle diameter AUC as compared to disease controls ([5]; Batch 1 and Batch 2 70 mg/kg, MTX 0.2 mg/kg, IV 3x/week, 17 day study) [%] | inhibition of final paw weights as compared to disease controls ([5]; Batch 1 and Batch 2 70 mg/kg, MTX 0.2 mg/kg, IV 3x/week, day 17) [%] | ankle cartilage damage, representative photomicrograph [5, 6] | ankle pannus and bone destruction, representative photomicrograph [5, 6] | ankle synovitis, representative photomicrograph [5, 6] | % decrease in ankle diameter verses disease control, drug alone ([1]; 1 mg/kg SC days 9, 12, 15) [%]
1 | CN(Cc1cnc2nc(N)nc(N)c2n1)c1ccc(C(=O)N[C@@H](CCC(=O)O)C(=O)O)cc1 [MTX, Methotrexate] | 52 | Significant decreases | 0.25 | did not remain completely in solution | less than 2 | 0.75 | 54 | 46 | minimal | minimal | moderate | 
2 | etanercept |  |  |  |  |  |  |  |  |  |  |  | 37

From patent publication US9017644B2, “Methods of treating autoimmune disorders and/or inflammatory disorders” (priority 2008, dated 2015)
